Measured values: patent US9758529B2, “Fused dihydro-4H-pyrazolo[5,1-C][1,4]oxazinyl compounds and analogs for treating CNS disorders” (Sunovion Pharmaceuticals Inc., priority 2015, dated 2017)
Structures can show the parent of a compound that is named as a salt.

system: mice; assay: Neuropharmacological Assay (SmartCube); format: in vivo; details: i.p. 15 min before behavioral test; 3 doses, most efficacious dose(s) presented

Row | SMILES | AD: ADHD (probability of class match) | AG: analgesic (probability of class match) | AX: anxiolytic (probability of class match) | CE: cognitive enhancer (probability of class match) | DP: anti-depressant (probability of class match) | HA: hallucinogen (probability of class match) | MS: mood stabilizer (probability of class match) | PS: anti-psychotic (probability of class match) | SD: sedative hypnotic (probability of class match) | UN: uncharacterized CNS activity (probability of class match)
1 | c1ccc2c3n(nc2c1)CCOC3C1CNC1 (centres unmarked) [Compound 66, 3-(3,4-dihydro-1H-[1,4]oxazino[4,3-b]indazol-1-yl)azetidin-1-ium chloride] | + (LOQ≦ + <5%) | ++ (5%≦ ++ <25%) | ++ (5%≦ ++ <25%) | + (LOQ≦ + <5%) | ++ (5%≦ ++ <25%) | + (LOQ≦ + <5%) | + (LOQ≦ + <5%) | + (LOQ≦ + <5%) | + (LOQ≦ + <5%) | + (LOQ≦ + <5%)
2 | CN(CC1OCCCn2nc3ccccc3c21)C1CCC1.Cl (centres unmarked) [Compound 55, N-((4,5-dihydro-1H,3H-[1,4]oxazepino[4,3-b]indazol-1-yl)methyl)-N-methylcyclobutanaminium chloride] | + (LOQ≦ + <5%) | + (LOQ≦ + <5%) | ++ (5%≦ ++ <25%) | + (LOQ≦ + <5%) | + (LOQ≦ + <5%) | + (LOQ≦ + <5%) | + (LOQ≦ + <5%) | + (LOQ≦ + <5%) | + (LOQ≦ + <5%) | +++ (25%≦ +++ <50%)
3 | Cl.c1ccc2c3n(nc2c1)CCOC3[C@H]1CNCCO1 (stereo partly drawn) [Compound 42, (2R)-2-(3,4-dihydro-1H-[1,4]oxazino[4,3-b]indazol-1-yl)morpholin-4-ium chloride] | + (LOQ≦ + <5%) | + (LOQ≦ + <5%) | + (LOQ≦ + <5%) | + (LOQ≦ + <5%) | + (LOQ≦ + <5%) | + (LOQ≦ + <5%) | + (LOQ≦ + <5%) | + (LOQ≦ + <5%) | + (LOQ≦ + <5%) | + (LOQ≦ + <5%)
4 | CNC[C@H]1OCCn2nc3ccccc3c21.Cl [Compound 2, (R)-(3,4-dihydro-1H-[1,4]oxazino[4,3-b]indazol-1-yl)-N-methylmethanaminium chloride] | ++ (5%≦ ++ <25%) | + (LOQ≦ + <5%) | ++ (5%≦ ++ <25%) | + (LOQ≦ + <5%) | ++++ (50%≦ ++++) | ++++ (50%≦ ++++) | + (LOQ≦ + <5%) | + (LOQ≦ + <5%) | + (LOQ≦ + <5%) | + (LOQ≦ + <5%)
5 | CN1CCC[C@H]1C1OCCn2nc3ccccc3c21 (stereo partly drawn) [Compound 14, 1-((S)-1-methylpyrrolidin-2-yl)-3,4-dihydro-1H-[1,4]oxazino[4,3-b]indazole hydrochloride] | + (LOQ≦ + <5%) | + (LOQ≦ + <5%) | +++ (25%≦ +++ <50%) | ++ (5%≦ ++ <25%) | ++ (5%≦ ++ <25%) | + (LOQ≦ + <5%) | + (LOQ≦ + <5%) | ++ (5%≦ ++ <25%) | + (LOQ≦ + <5%) | + (LOQ≦ + <5%)
6 | CN(C)CC1OCCn2nc3ccc(Cl)cc3c21.Cl (centres unmarked) [Compound 6, 1-(9-chloro-3,4-dihydro-1H-[1,4]oxazino[4,3-b]indazol-1-yl)-N,N-dimethylmethanaminium chloride] | + (LOQ≦ + <5%) | ++ (5%≦ ++ <25%) | ++ (5%≦ ++ <25%) | ++ (5%≦ ++ <25%) | +++ (25%≦ +++ <50%) | + (LOQ≦ + <5%) | + (LOQ≦ + <5%) | ++ (5%≦ ++ <25%) | + (LOQ≦ + <5%) | + (LOQ≦ + <5%)
7 | CN1CCOC[C@H]1[C@@H]1OCCn2nc3ccccc3c21 (racemic) [Compound 48, (+/−)-(3S,4R)-3-((S)-3,4-dihydro-1H-[1,4]oxazino[4,3-b]indazol-1-yl)-4-methylmorpholin-4-ium chloride] | + (LOQ≦ + <5%) | + (LOQ≦ + <5%) | + (LOQ≦ + <5%) | + (LOQ≦ + <5%) | + (LOQ≦ + <5%) | + (LOQ≦ + <5%) | + (LOQ≦ + <5%) | + (LOQ≦ + <5%) | + (LOQ≦ + <5%) | + (LOQ≦ + <5%)
8 | c1ccc2c3n(nc2c1)CCOC3CN1CCOCC1 (centres unmarked) [Compound 20, 1-(morpholinomethyl)-3,4-dihydro-1H-[1,4]oxazino[4,3-b]indazole hydrogen chloride salt] | + (LOQ≦ + <5%) | ++ (5%≦ ++ <25%) | +++ (25%≦ +++ <50%) | ++ (5%≦ ++ <25%) | ++ (5%≦ ++ <25%) | + (LOQ≦ + <5%) | + (LOQ≦ + <5%) | ++ (5%≦ ++ <25%) | + (LOQ≦ + <5%) | + (LOQ≦ + <5%)
9 | C[C@H]([C@H]1OCCn2nc3ccccc3c21)N(C)C.Cl (relative stereo) [Compound 32, (+/−)-rel-(R)-1-((R)-3,4-dihydro-1H-[1,4]oxazino[4,3-b]indazol-1-yl)-N,N-dimethylethanaminium chloride] | + (LOQ≦ + <5%) | + (LOQ≦ + <5%) | ++ (5%≦ ++ <25%) | ++ (5%≦ ++ <25%) | ++ (5%≦ ++ <25%) | + (LOQ≦ + <5%) | + (LOQ≦ + <5%) | +++ (25%≦ +++ <50%) | + (LOQ≦ + <5%) | ++ (5%≦ ++ <25%)
10 | CN(C)CC1OCCn2nc3cnccc3c21.Cl.Cl (centres unmarked) [Compound 62, 1-((dimethylammonio)methyl)-3,4-dihydro-1H-pyrido[3′,4′:3,4]pyrazolo[5,1-c][1,4]oxazin-8-ium chloride] | + (LOQ≦ + <5%) | + (LOQ≦ + <5%) | ++ (5%≦ ++ <25%) | + (LOQ≦ + <5%) | + (LOQ≦ + <5%) | + (LOQ≦ + <5%) | + (LOQ≦ + <5%) | + (LOQ≦ + <5%) | + (LOQ≦ + <5%) | + (LOQ≦ + <5%)

same assay, conditions: i.p. 15 min before behavioral test; 3 doses, most efficacious dose(s) presented

Row | SMILES | XG: anxiogenic (probability of class match)
11 | c1ccc2c3n(nc2c1)CCOC3C1CNC1 (centres unmarked) [Compound 66, 3-(3,4-dihydro-1H-[1,4]oxazino[4,3-b]indazol-1-yl)azetidin-1-ium chloride] | + (LOQ≦ + <5%)
12 | CN(CC1OCCCn2nc3ccccc3c21)C1CCC1.Cl (centres unmarked) [Compound 55, N-((4,5-dihydro-1H,3H-[1,4]oxazepino[4,3-b]indazol-1-yl)methyl)-N-methylcyclobutanaminium chloride] | + (LOQ≦ + <5%)
13 | Cl.c1ccc2c3n(nc2c1)CCOC3[C@H]1CNCCO1 (stereo partly drawn) [Compound 42, (2R)-2-(3,4-dihydro-1H-[1,4]oxazino[4,3-b]indazol-1-yl)morpholin-4-ium chloride] | + (LOQ≦ + <5%)
14 | CNC[C@H]1OCCn2nc3ccccc3c21.Cl [Compound 2, (R)-(3,4-dihydro-1H-[1,4]oxazino[4,3-b]indazol-1-yl)-N-methylmethanaminium chloride] | + (LOQ≦ + <5%)
15 | CN1CCC[C@H]1C1OCCn2nc3ccccc3c21 (stereo partly drawn) [Compound 14, 1-((S)-1-methylpyrrolidin-2-yl)-3,4-dihydro-1H-[1,4]oxazino[4,3-b]indazole hydrochloride] | + (LOQ≦ + <5%)
16 | CN(C)CC1OCCn2nc3ccc(Cl)cc3c21.Cl (centres unmarked) [Compound 6, 1-(9-chloro-3,4-dihydro-1H-[1,4]oxazino[4,3-b]indazol-1-yl)-N,N-dimethylmethanaminium chloride] | + (LOQ≦ + <5%)
17 | CN1CCOC[C@H]1[C@@H]1OCCn2nc3ccccc3c21 (racemic) [Compound 48, (+/−)-(3S,4R)-3-((S)-3,4-dihydro-1H-[1,4]oxazino[4,3-b]indazol-1-yl)-4-methylmorpholin-4-ium chloride] | + (LOQ≦ + <5%)
18 | c1ccc2c3n(nc2c1)CCOC3CN1CCOCC1 (centres unmarked) [Compound 20, 1-(morpholinomethyl)-3,4-dihydro-1H-[1,4]oxazino[4,3-b]indazole hydrogen chloride salt] | + (LOQ≦ + <5%)
19 | C[C@H]([C@H]1OCCn2nc3ccccc3c21)N(C)C.Cl (relative stereo) [Compound 32, (+/−)-rel-(R)-1-((R)-3,4-dihydro-1H-[1,4]oxazino[4,3-b]indazol-1-yl)-N,N-dimethylethanaminium chloride] | + (LOQ≦ + <5%)
20 | CN(C)CC1OCCn2nc3cnccc3c21.Cl.Cl (centres unmarked) [Compound 62, 1-((dimethylammonio)methyl)-3,4-dihydro-1H-pyrido[3′,4′:3,4]pyrazolo[5,1-c][1,4]oxazin-8-ium chloride] | + (LOQ≦ + <5%)
